Results taken from patent US10316039B2, “P2X3 and/or P2X2/3 compounds and methods” (Asana Biosciences, LLC, priority 2013, dated 2019).

How the values were obtained:
P2X3 = target: T1, P2X3 (UniProt P56373); test: P2X3 FLIPR intracellular calcium assay; type: cell-based; details: agonist at EC75, species (human or rat) not given
T1 sequence (P56373 1-397): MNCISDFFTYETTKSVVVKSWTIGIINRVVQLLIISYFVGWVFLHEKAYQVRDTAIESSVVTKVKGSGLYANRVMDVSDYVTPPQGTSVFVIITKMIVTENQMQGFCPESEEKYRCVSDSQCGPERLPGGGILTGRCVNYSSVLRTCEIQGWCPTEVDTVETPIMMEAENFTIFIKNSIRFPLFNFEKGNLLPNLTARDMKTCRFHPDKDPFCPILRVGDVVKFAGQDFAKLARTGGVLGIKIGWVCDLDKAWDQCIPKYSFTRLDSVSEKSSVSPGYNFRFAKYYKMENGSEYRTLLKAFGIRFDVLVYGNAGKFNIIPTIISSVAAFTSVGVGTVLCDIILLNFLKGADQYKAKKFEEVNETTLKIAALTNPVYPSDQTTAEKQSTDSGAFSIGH
Method in brief: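 Human P2X3-HEK, human P2X2/3-TRex293, rat P2X2/3-TRex293 or rat P2X3 TRex-CHO cells loaded with Calcium 4 dye (1.8 mM probenecid, pH 7.4).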

P2X2/3 = target: T2, P2X2/3 (Homo sapiens, UniProt P56373+Q9UBL9); test: P2X2/3 FLIPR intracellular calcium assay; type: cell-based; details: agonist at EC75, species (human or rat) not given
T2 sequence (Q9UBL9 1-471): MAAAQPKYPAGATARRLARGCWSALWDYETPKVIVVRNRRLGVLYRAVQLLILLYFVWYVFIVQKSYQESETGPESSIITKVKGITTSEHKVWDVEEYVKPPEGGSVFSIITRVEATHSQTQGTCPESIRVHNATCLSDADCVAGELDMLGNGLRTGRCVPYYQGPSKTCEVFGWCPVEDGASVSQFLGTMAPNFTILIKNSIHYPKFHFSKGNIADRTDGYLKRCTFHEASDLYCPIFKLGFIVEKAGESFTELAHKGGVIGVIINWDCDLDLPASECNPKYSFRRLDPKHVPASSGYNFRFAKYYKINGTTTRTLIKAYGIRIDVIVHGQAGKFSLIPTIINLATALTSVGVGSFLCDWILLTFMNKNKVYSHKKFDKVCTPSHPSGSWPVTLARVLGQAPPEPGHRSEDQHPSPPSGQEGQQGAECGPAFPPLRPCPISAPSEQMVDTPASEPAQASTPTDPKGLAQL
T2 sequence (P56373 1-397): T1 sequence (P56373 1-397)
Method in brief: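 Stable human P2X2/3 TRex293 cells (doxycycline-induced) loaded with Calcium 4 dye; compounds, 11-point half-log series from 2 mM top stock, preincubated 15 min at RT in HBSS/HEPES pH 7.4 with 1.8 mM CaCl2. Agonist added at EC75; fluorescence change versus no-compound wells gave IC50.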

Structure (SMILES) | IC50 (P2X3) [nM] | IC50 (P2X2/3) [nM]
Cc1cnc(CNC(=O)c2cc(-n3nncc3C(F)F)c3ncc(-c4ncc(C)s4)n3c2)cn1 [Example 77] | 1 to 100 | 100 to 1000
Cc1cnc(CNC(=O)c2cc(-n3nncc3C(F)F)c3ncc(-c4ccc(C)o4)n3c2)cn1 [Example 78] | 1 to 100 | 1 to 100
C[C@H](NC(=O)c1cc(-n2nncc2C(F)(F)F)c2ncc(-c3ccc(Cl)s3)n2c1)c1nnc[nH]1 [Example 79] | 1 to 100 | 1 to 100
Cc1ncc(CNC(=O)c2cc(-n3nncc3CC(F)(F)F)c3ncc(-c4ccc(C)s4)n3c2)cn1 [Example 80] | 1 to 100 | 1 to 100
Cc1ccc(-c2cnc3c(-n4nncc4CC(F)(F)F)cc(C(=O)N[C@@H](C)c4nnc[nH]4)cn23)s1 [Example 81] | 1 to 100 | 1 to 100
Cc1ncc(CNC(=O)c2cc(-n3nncc3CC(F)(F)F)c3ncc(-c4ncc(C)s4)n3c2)cn1 [Example 82] | 1 to 100 | 100 to 1000
COc1ccc(CNC(=O)c2cc(-n3nncc3C(F)F)c3ncc(-c4ccc(C)s4)n3c2)cn1 [Example 83] | 1 to 100 | 1 to 100
Cc1ncc([C@@H](C)NC(=O)c2cc(-n3nncc3C(F)F)c3ncc(-c4ncc(C)s4)n3c2)cn1 [Example 84] | 1 to 100 | 1 to 100
Cc1noc([C@@H](C)NC(=O)c2cc(-n3nncc3C(F)F)c3ncc(-c4ccc(C)s4)n3c2)n1 [Example 85] | 1 to 100 | 1 to 100
COc1ncc(CNC(=O)c2cc(-n3nncc3C(F)(F)F)c3ncc(-c4ncc(C)s4)n3c2)cn1 [Example 86] | 100 to 1000 | 100 to 1000
Cc1ccc(CNC(=O)c2cc(-n3nncc3C(C)(F)F)c3ncc(-c4ncc(C)s4)n3c2)cn1 [Example 87] | 100 to 1000 | 100 to 1000
CCc1cnnn1-c1cc(C(=O)N[C@H](C)c2nc(C)no2)cn2c(-c3ccc(C)s3)cnc12 [Example 88] | > 10000 | 1 to 100
Cc1ccc(-c2cnc3c(Nc4ccccc4)cc(C(=O)NCc4ccn(C)c(=O)c4)cn23)s1 [Example 90] | 1 to 100 | 1000 to 10000
Cc1ccc(CNC(=O)c2cc(Nc3ccccc3)c3ncc(-c4ccc(C)s4)n3c2)cn1 [Example 91] | 100 to 1000 | 1000 to 10000
Cc1ccc(-c2cnc3c(Nc4nccs4)cc(C(=O)N[C@@H](C)c4nnc[nH]4)cn23)s1 [Example 92] | 100 to 1000 | 1000 to 10000
Cc1ccc(-c2cnc3c(Nc4nccs4)cc(C(=O)NCc4ccn(C)c(=O)c4)cn23)s1 [Example 93] | 100 to 1000 | 1000 to 10000
Cc1ccc(-c2cnc3c(Nc4ncc(C)s4)cc(C(=O)N[C@@H](C)c4nnc[nH]4)cn23)s1 [Example 94] | 1 to 100 | 1000 to 10000
Cc1ccc(-c2cnc3c(Nc4ccc(F)cc4)cc(C(=O)N[C@@H](C)c4nnc[nH]4)cn23)s1 [Example 95] | 1 to 100 | > 10000
COc1ccccc1Nc1cc(C(=O)N[C@@H](C)c2nnc[nH]2)cn2c(-c3ccc(C)s3)cnc12 [Example 96] | 100 to 1000 | 100 to 1000
Cc1ccc(CNC(=O)c2cc(-c3cnn(C)c3)c3ncc(-c4ccc(C)s4)n3c2)cn1 [Example 98] | 1000 to 10000 | 100 to 1000
Cc1ccc(-c2cnc3c(-c4cnn(C)c4)cc(C(=O)NCc4ccn(C)c(=O)c4)cn23)s1 [Example 99] | 1 to 100 | 1000 to 10000
Cc1ccc(-c2cnc3c(-c4ccnn4C)cc(C(=O)N[C@@H](C)c4nnc[nH]4)cn23)s1 [Example 100] | 1 to 100 | 100 to 1000
Cc1ccc(-c2cc(C(=O)N[C@@H](C)c3nnc[nH]3)cn3c(-c4ccc(C)s4)cnc23)s1 [Example 101] | 1 to 100 | 1 to 100

Structure (SMILES) | IC50 (P2X3) [nM] | IC50 (P2X2/3) [nM]
Cc1ccc(-c2cnc3c(-c4c(C)noc4C)cc(C(=O)N[C@@H](C)c4nnc[nH]4)cn23)s1 [Example 102] | 1 to 100 | 1 to 100
CCn1nccc1-c1cc(C(=O)N[C@@H](C)c2nnc[nH]2)cn2c(-c3ccc(C)s3)cnc12 [Example 103] | 1 to 100 | 100 to 1000
Cc1ccc(-c2cnc3c(-c4cnn(CC5CC5)c4)cc(C(=O)N[C@@H](C)c4nnc[nH]4)cn23)s1 [Example 104] | 1 to 100 | 100 to 1000
Cc1ccc(-c2cnc3c(-c4cnn(CCF)c4)cc(C(=O)N[C@@H](C)c4nnc[nH]4)cn23)s1 [Example 105] | 1 to 100 | 100 to 1000
Cc1ccc(CNC(=O)c2cc(-c3c(C)noc3C)c3ncc(-c4ccc(C)s4)n3c2)cn1 [Example 106] | > 10000 | 1 to 100
Cc1noc(C)c1-c1cc(C(=O)N[C@@H](C)c2nnc[nH]2)cn2c(-c3ccc(Cl)s3)cnc12 [Example 107] | 1 to 100 | 1 to 100
CC[C@H](NC(=O)c1cc(-c2c(C)noc2C)c2ncc(-c3ccc(C)s3)n2c1)c1nnc[nH]1 [Example 108] | 1 to 100 | 1 to 100
Cc1cnc(-c2cnc3c(-c4c(C)noc4C)cc(C(=O)N[C@@H](C)c4nnc[nH]4)cn23)s1 [Example 109] | 1 to 100 | 100 to 1000
Cc1ccc(-c2cnc3c(-c4c(C)n[nH]c4C)cc(C(=O)N[C@@H](C)c4nnc[nH]4)cn23)s1 [Example 110] | 1 to 100 | 1 to 100
Cc1ncc(CNC(=O)c2cc(-c3c(C)n[nH]c3C)c3ncc(-c4ccc(C)s4)n3c2)cn1 [Example 111] | > 10000 | 1 to 100
Cc1ccc(-c2cnc3c(-c4cnn(CC(N)=O)c4)cc(C(=O)N[C@@H](C)c4nnc[nH]4)cn23)s1 [Example 112] | 100 to 1000 | 1000 to 10000
Cc1ccc(CNC(=O)c2cc(N3CCC(C)CC3)c3ncc(-c4ccc(C)s4)n3c2)cn1 [Example 115] | 1000 to 10000 | 100 to 1000
Cc1cnc(CNC(=O)c2cc(N3CCC(C)CC3)c3ncc(-c4ccc(C)s4)n3c2)cn1 [Example 116] | 1000 to 10000 | 100 to 1000
CC1CCN(c2cc(C(=O)N[C@@H](C)c3nnc[nH]3)cn3c(-c4ccc(Cl)s4)cnc23)CC1 [Example 118] | 100 to 1000 | 100 to 1000
Cc1ccc(-c2cnc3c(NC4CCCCC4)cc(C(=O)N[C@@H](C)c4nnc[nH]4)cn23)s1 [Example 121] | 100 to 1000 | 100 to 1000
Cc1ccc(-c2cnc3c(N4CCC(C)CC4)cc(C(=O)NCc4ccn(C)c(=O)c4)cn23)s1 [Example 128] | 1 to 100 | 100 to 1000
Cc1ccc(-c2cnc3c(N4CCC(C)(C)CC4)cc(C(=O)N[C@@H](C)c4nnc[nH]4)cn23)s1 [Example 129] | 1 to 100 | 100 to 1000
Cc1ccc(-c2cnc3c(N4CCC(F)(F)CC4)cc(C(=O)N[C@@H](C)c4nnc[nH]4)cn23)s1 [Example 130] | 1 to 100 | 1 to 100
Cc1ccc(-c2cnc3c(N4CCC(CF)CC4)cc(C(=O)N[C@@H](C)c4nnc[nH]4)cn23)s1 [Example 133] | 1 to 100 | 100 to 1000
Cc1ccc(-c2cnc3c(N4CCC(C(F)(F)F)CC4)cc(C(=O)N[C@@H](C)c4nnc[nH]4)cn23)s1 [Example 134] | 1 to 100 | 1000 to 10000
Cc1ccc(-c2cnc3c(NC4CCCC4)cc(C(=O)N[C@@H](C)c4nnc[nH]4)cn23)s1 [Example 135] | 100 to 1000 | 100 to 1000
Cc1csc(-c2cnc3c(N4CCC(F)(F)CC4)cc(C(=O)N[C@@H](C)c4nnc[nH]4)cn23)c1 [Example 136] | 1 to 100 | 100 to 1000
